These results are taken from patent publication US7390813B1, “Pyridylpiperazines and aminonicotinamides and their use as therapeutic agents” (Xenon Pharmaceuticals Inc., priority 2001, dated 2008).

One assay deals with stearoyl-CoA desaturase. Put plainly: Fatty acid composition in rats after repeated dosing. Type of assay: in vivo. The conditions noted are these: 9 doses (2 per day), 30 mg/kg body weight, HCl salt. From the text: A highly preferred compound of the invention has the structure of Formula I, wherein R1 is H and R2 is isopentyl, X=C, n=2, m=1 and R3=2-trifluoromethylphenyl.

The target in assay [1] is T1, stearoyl-CoA desaturase (SCD) (Mus musculus, UniProt P13516).
T1 construct: % Remaining SCD activity compared to DMSO control in mouse liver microsome assay; from tissue; host or cells: mouse liver microsomes
T1 sequence (P13516 1-355): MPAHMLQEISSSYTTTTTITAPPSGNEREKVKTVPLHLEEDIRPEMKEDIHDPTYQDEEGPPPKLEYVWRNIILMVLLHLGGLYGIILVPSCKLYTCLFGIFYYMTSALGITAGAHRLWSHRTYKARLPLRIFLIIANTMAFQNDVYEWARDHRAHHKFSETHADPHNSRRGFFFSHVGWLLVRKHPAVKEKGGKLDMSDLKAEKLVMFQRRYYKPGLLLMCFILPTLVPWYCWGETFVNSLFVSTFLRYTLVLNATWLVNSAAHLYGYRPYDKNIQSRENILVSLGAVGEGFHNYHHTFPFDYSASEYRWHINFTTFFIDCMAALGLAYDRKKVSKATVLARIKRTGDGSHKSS
Put plainly: SCD mouse liver microsome assay (tritiated stearoyl-CoA desaturation). Type of assay: biochemical. The conditions noted are these: for % Remaining SCD activity compared to DMSO control, average: mouse liver microsomes 100 μg, 15 min RT preincubation, 15 min RT desaturation. On the procedure:
The identification of compounds of the invention was readily accomplished using the SCD enzyme and microsomal assay procedure described in Brownlie et al, supra.
Briefly, mouse or human liver microsomes (induced for SCD1 expression and containing cytochrome b5 and cytochrome b5 reductase) and NADH are suspended in buffer with a test compound, and reaction is initiated by addition of 0.025 mM tritiated stearoyl-CoA. This ligand is tritiated at the C9 and C10 position only. The reaction is allowed to proceed for between 5 and 20 minutes at room temperature, whereupon it is halted by addition of acid. Activated charcoal is then added, mixed, and centrifuged to separate labeled substrate from labeled water. An aliquot of supernatant is than tested for radioactivity using liquid scintillation counting. This is taken as a measure of delta-9 desaturase activity.
The compounds and compositions of the invention were tested in mouse liver microsomes, 100 μg for 15 minutes at room temperature pre-incubation with the compound and 15 minutes at room temperature desaturation period. […] Identification numbers are the same as those indicated in FIGS. 1 and 2 showing the structures and characteristics of the compounds.
% Remaining SCD activity compared to DMSO control in mouse liver microsome assay at concentration of test compound indicated. Compounds tested in mouse liver microsomes, 100 μg, 15 min RT preincubation with compound, 15 min RT desaturation period, Large volume bench-top tube method.
Background: Liver microsomes are vesicles of endoplasmic reticulum, rich in cytochrome P450 enzymes.

[2] abbreviates: Table 5, % remaining SCD activity at 0.1 μM, mouse microsome assay.
Where [3] appears, read: Table 5, % remaining SCD activity at 1 μM, mouse microsome assay.
The mark [4] stands for this setting: Table 5, % remaining SCD activity at 10 μM, mouse microsome assay.

Where two headings read alike, the source gives them in different places.

Turning to `CC(C)CCNC(=O)c1ccc(N2CCN(C(=O)c3ccccc3C(F)(F)F)CC2)nc1`, the “changes in fatty acid composition” value with stearoyl-CoA desaturase is on record as “changes in fatty acid composition consistent with inhibition of SCD activity”.
In the case of `CCCCCNC(=O)c1ccc(N2CCN(C(=O)c3cc(Cl)ccc3Cl)CC2)nc1` [Compound X06], the “% Remaining SCD activity compared to DMSO control, average” value (shortened to “% Remaining SCD activity”) in assay [1] (0.1 uM test compound) was found to be 38.00%; in assay [1] (1 uM test compound), 5.38%; in assay [1] (10 uM test compound), 1.97%. The “% Activity 0.1 μM” value in assay [1] (setting [2]) turned out to be 38%. Moreover, the “% Activity 1 μM” value in assay [1] (setting [3]) worked out at 5.4%. Further, the “% Activity 10 μM” value in assay [1] (setting [4]) is on record as 2%.
Regarding `CCCCNC(=O)c1ccc(N2CCN(C(=O)c3ccccc3Br)CC2)nc1` [Compound X19], the entries for the “% Remaining SCD activity” value in assay [1] (0.1 uM test compound), in assay [1] (1 uM test compound) and in assay [1] (10 uM test compound) were 75.14%, 18.59% and 3.57%, respectively. The “% Activity 10 μM” value in assay [1] (setting [4]) is listed as 3.57%.
For `CC(C)CCNC(=O)c1ccc(N2CCN(C(=O)c3ccc(Cl)cc3Cl)CC2)nc1` [Compound X14], the “% Remaining SCD activity” value in assay [1] (0.1 uM test compound) turned out to be 38.24%; in assay [1] (1 uM test compound), 7.44%; in assay [1] (10 uM test compound), 1.39%. Moreover, the “% Activity 0.1 μM” value in assay [1] (setting [2]) worked out at 38%. Besides, the “% Activity 1 μM” value in assay [1] (setting [3]) amounted to 7.4%. The “% Activity 10 μM” value in assay [1] (setting [4]) came to 1.4%.
With `CCCCCCNC(=O)c1ccc(N2CCN(C(=O)c3ccccc3C(F)(F)F)CC2)nc1` [Compound X15], the “% Remaining SCD activity” value turned out to be 44.95% in assay [1] (0.1 uM test compound), 6.46% in assay [1] (1 uM test compound) and 1.22% in assay [1] (10 uM test compound). Besides, the “% Activity 0.1 μM” value in assay [1] (setting [2]) stood at 45%. Also, in assay [1] (setting [3]), the “% Activity 1 μM” value was determined as 6.5%. In assay [1] (setting [4]), the “% Activity 10 μM” value amounted to 1.2%.
With `Cc1ccsc1C(=O)N1CCN(c2ccc(C(=O)NCCc3cccc(Cl)c3)cn2)CC1` [Compound X18], the “% Remaining SCD activity” value in assay [1] (0.1 uM test compound) was 86.33%; in assay [1] (1 uM test compound), 32.64%; in assay [1] (10 uM test compound) it was 3.41%. For the same molecule, the “% Activity 10 μM” value in assay [1] (setting [4]) is listed as 3.41%.
As for `O=C(NCCc1ccccc1)c1ccc(N2CCN(C(=O)c3cc(Cl)ccc3Cl)CC2)nc1` [Compound X12], the “% Remaining SCD activity” value in assay [1] (0.1 uM test compound) came to 29.87%; in assay [1] (1 uM test compound) it was 3.91%; in assay [1] (10 uM test compound), 1.15%. Further, in assay [1] (setting [2]), the “% Activity 0.1 μM” value worked out at 30%. In addition, in assay [1] (setting [3]), the “% Activity 1 μM” value was 3.9%. In addition, the “% Activity 10 μM” value in assay [1] (setting [4]) was 1.2%.
Regarding `CC(C)CCNC(=O)c1ccc(N2CCN(C(=O)c3cccc4ccccc34)CC2)nc1` [Compound X16], the “% Remaining SCD activity” value came to 31.35% in assay [1] (0.1 uM test compound), 7.01% in assay [1] (1 uM test compound) and 2.06% in assay [1] (10 uM test compound). The “% Activity 0.1 μM” value in assay [1] (setting [2]) is reported as 31%. Further, the “% Activity 1 μM” value in assay [1] (setting [3]) stood at 7%. Further, the “% Activity 10 μM” value in assay [1] (setting [4]) was 2.1%.
For the molecule `CCCCCNC(=O)c1ccc(N2CCN(C(=O)c3ccccc3Br)CC2)nc1` [Compound X13], the “% Remaining SCD activity” value in assay [1] (0.1 uM test compound) worked out at 44.42%; in assay [1] (1 uM test compound), 7.77%; in assay [1] (10 uM test compound), 1.75%. For the same molecule, the “% Activity 0.1 μM” value in assay [1] (setting [2]) is given as 44%. The “% Activity 1 μM” value in assay [1] (setting [3]) was 7.8%. Besides, the “% Activity 10 μM” value in assay [1] (setting [4]) was 1.8%.
As for `O=C(NCCc1ccccc1)c1ccc(N2CCN(C(=O)c3ccccc3Br)CC2)nc1` [Compound X04], the entries for the “% Remaining SCD activity” value in assay [1] (0.1 uM test compound), in assay [1] (1 uM test compound) and in assay [1] (10 uM test compound) were 36.54%, 5.48% and 1.29%, respectively. Further, the “% Activity 0.1 μM” value in assay [1] (setting [2]) was 37%. Moreover, in assay [1] (setting [3]), the “% Activity 1 μM” value was found to be 5.5%. Further, the “% Activity 10 μM” value in assay [1] (setting [4]) was 1.3%.
Consider `O=C(NCCc1cccc(Cl)c1)c1ccc(N2CCN(C(=O)c3ccccc3C(F)(F)F)CC2)nc1` [Compound X01], for which the “% Remaining SCD activity” value in assay [1] (0.1 uM test compound) came to 57.77%; in assay [1] (1 uM test compound), 9.05%; in assay [1] (10 uM test compound) it was 1.42%. For the same molecule, the “% Activity 0.1 μM” value in assay [1] (setting [2]) was found to be 58%. Moreover, the “% Activity 1 μM” value in assay [1] (setting [3]) was found to be 9.1%. Also, the “% Activity 10 μM” value in assay [1] (setting [4]) was determined as 1.4%.
As for `COc1ccc(Br)c(C(=O)N2CCN(c3ccc(C(=O)NCCCc4ccccc4)cn3)CC2)c1` [Compound X17], the “% Remaining SCD activity” value in assay [1] (0.1 uM test compound) was 61.74%; in assay [1] (1 uM test compound) it was 10.59%; in assay [1] (10 uM test compound), 1.01%. Also, the “% Activity 10 μM” value in assay [1] (setting [4]) was 1.01%.
For the molecule `CCCCNC(=O)c1ccc(N2CCN(C(=O)c3ccccc3C(F)(F)F)CC2)nc1` [Compound X09], the results for the “% Remaining SCD activity” value in assay [1] (0.1 uM test compound), in assay [1] (1 uM test compound) and in assay [1] (10 uM test compound) were 63.58%, 14.80% and 2.69%, respectively. Besides, the “% Activity 0.1 μM” value in assay [1] (setting [2]) is listed as 64%. The “% Activity 1 μM” value in assay [1] (setting [3]) stood at 15%. Also, the “% Activity 10 μM” value in assay [1] (setting [4]) turned out to be 2.7%.
One may read the IC50 as the concentration that inhibits the measured activity by half. As for `CCCCCNC(=O)c1ccc(N2CCN(C(=O)c3ccccc3C(F)(F)F)CC2)nc1` [Compound X11], the results for the “% Remaining SCD activity” value in assay [1] (0.1 uM test compound), in assay [1] (1 uM test compound) and in assay [1] (10 uM test compound) were 25.41%, 3.67% and 1.72%, respectively. Also, in assay [1] (setting [2]), the “% Activity 0.1 μM” value is given as 25%. In addition, the “% Activity 1 μM” value in assay [1] (setting [3]) is reported as 3.7%. Further, in assay [1] (setting [4]), the “% Activity 10 μM” value turned out to be 1.7%. Moreover, the IC50 in assay [1] (Table 5, SCD inhibition, read-out: IC50) was determined as 37 nM.
`CC(C)CCNC(=O)c1ccc(N2CCN(C(=O)c3ccccc3Br)CC2)nc1` [Compound X02]: the “% Remaining SCD activity” value in assay [1] (0.1 uM test compound) was determined as 25.68%; in assay [1] (1 uM test compound), 5.49%; in assay [1] (10 uM test compound), 1.27%. Also, in assay [1] (setting [2]), the “% Activity 0.1 μM” value worked out at 26%. Besides, the “% Activity 1 μM” value in assay [1] (setting [3]) turned out to be 5.5%. In addition, the “% Activity 10 μM” value in assay [1] (setting [4]) was determined as 1.3%.
On to `O=C(NCCCc1ccccc1)c1ccc(N2CCN(C(=O)c3cc(Cl)ccc3Cl)CC2)nc1` [Compound X10], for which the “% Remaining SCD activity” value in assay [1] (0.1 uM test compound) was 29.72%; in assay [1] (1 uM test compound), 3.37%; in assay [1] (10 uM test compound) it was 1.07%. Further, the “% Activity 0.1 μM” value in assay [1] (setting [2]) is given as 30%. The “% Activity 1 μM” value in assay [1] (setting [3]) turned out to be 3.4%. Also, the “% Activity 10 μM” value in assay [1] (setting [4]) is given as 1.1%.
Regarding `CC(C)CCNC(=O)c1ccc(N2CCN(C(=O)c3ccccc3C(F)(F)F)CC2)nc1` [Compound X05], the “% Remaining SCD activity” value in assay [1] (0.1 uM test compound) is recorded as 17.09%; in assay [1] (1 uM test compound), 3.05%; in assay [1] (10 uM test compound), 0.81%. For the same molecule, the activity at 0.1 µM in assay [1] (setting [2]) is 17%. In assay [1] (setting [3]), this molecule had an activity at 1 µM of 3.1%. The activity at 10 µM in assay [1] (setting [4]) was determined as 0.8%. For the same molecule, in assay [1] (stated in summary text, read-out: IC50 value), the IC50 stood at 32 nM.
For the molecule `Cc1ccccc1CC(=O)N1CCN(c2ccc(C(=O)NCCC(C)C)cn2)CC1` [Compound X21], the “% Remaining SCD activity” value is 74.82% in assay [1] (0.1 uM test compound), 33.28% in assay [1] (1 uM test compound) and 3.94% in assay [1] (10 uM test compound). The “% Activity 10 μM” value in assay [1] (setting [4]) came out at 3.94%.
As to `O=C(NCCCc1ccccc1)c1ccc(N2CCN(C(=O)c3ccccc3C(F)(F)F)CC2)nc1` [Compound X03], the entries for the “% Remaining SCD activity” value in assay [1] (0.1 uM test compound), in assay [1] (1 uM test compound) and in assay [1] (10 uM test compound) were 26.04%, 2.17% and 0.72%, respectively. Also, the “% of the activity inhibited” value in assay [1] (10 μM concentration of the compound) was over 99%. In assay [1] (setting [2]), the “% Activity 0.1 μM” value is reported as 26%. Besides, the “% Activity 1 μM” value in assay [1] (setting [3]) worked out at 2.2%. The “% Activity 10 μM” value in assay [1] (setting [4]) was 0.7%.
